Results as given in PubChem BioAssay (NCI).
“And” between values parts separate entries of the source, which are not always exact repeats. Identical values can stand only once.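 1) Cells in 96-well plates. 2) Compound, 48 h, 5 concentrations. 3) Linear interpolation between surrounding doses. 4) Unreached endpoint = highest concentration. GI50 = concentration required for 50% inhibition of growth. TGI marks complete inhibition of growth.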

Columns and labels:
Experiment in all cases: growth of human tumour cells (NCI), 48 h
[1] = system: HS 578T breast
[2] = system: IGROV1 ovarian
[3] = system: OVCAR-5 ovarian
[4] = system: A498 renal
[5] = system: CAKI-1 renal
[6] = system: SK-MEL-5 melanoma
[7] = system: OVCAR-4 ovarian
[8] = system: NCI-H226 lung
[9] = system: SN12C renal
[10] = system: M14 melanoma

Structure (SMILES) | TGI [1] | TGI [2] [µM] | TGI [3] [µM] | TGI [4] | TGI [5] [µM] | TGI [6] | TGI [7] | TGI [8] | TGI [9] [µM] | TGI [10] [µM] | GI50 [1] [µM] | GI50 [2] | GI50 [3] | GI50 [4] [µM] | GI50 [5] [µM] | GI50 [6] [µM] | GI50 [7] [nM] | GI50 [8] | GI50 [9] [µM] | GI50 [10] [mM]
Cc1ccc(S(=O)(=O)N2CCN(S(=O)(=O)c3ccc(C)cc3)CCN(S(=O)(=O)c3ccc(C)cc3)Cc3cc(Br)c(Br)cc3CN(S(=O)(=O)c3ccc(C)cc3)CC2)cc1 | > 100 µM | > 100 | > 100 | > 100 µM | > 100 | > 100 µM | > 100 µM | > 100 µM | > 100 | 43.2 | – | – | – | – | – | – | – | – | – | –
c1ccc2c(-c3csc(-c4c[nH]c5ccccc45)n3)c[nH]c2c1 | > 100 µM | > 100 | > 100 | > 100 µM | > 100 | – | > 100 µM | > 100 µM | > 100 | > 100 | – | – | – | – | – | – | – | – | – | –
O=[N+]([O-])/C=C/c1cn(CCCCCCCCCCCCn2cc(/C=C/[N+](=O)[O-])c3ccccc32)c2ccccc12 | > 100 µM | > 100 | > 100 | > 100 µM | > 100 | > 100 µM | > 100 µM | > 100 µM | > 100 | > 100 | – | – | – | – | – | – | – | – | – | –
CC(=O)NCCCCN(CCCNC(C)=O)C(=O)OCc1ccccc1 | > 100 µM | > 100 | > 100 | > 100 µM | > 100 | > 100 µM | > 100 µM | > 100 µM | > 100 | > 100 | – | – | – | – | – | – | – | – | – | –
c1n[nH]cc1C12C3C4C5C3C1C5C42 (configuration not stated) | > 100 µM | > 100 | > 100 | > 100 µM | > 100 | > 100 µM | > 100 µM | > 100 µM | > 100 | > 100 | – | – | – | – | – | – | – | – | – | –
CC1SC(c2ccc(Cl)cc2)N(CCc2cccs2)C1=O (configuration not stated) | 4.1 µM | 5.77 | 4.56 | 2.47 µM | 3.42 | 2.75 µM | 2.44 µM | 3.26 µM | 3.15 | – | 1.53 | 1.8 µM | 1.85 µM | 1.21 | 1.15 | 1.43 | 1190 | 1.5 µM | 1.7 | –
C/C(=N\NC(=S)Nc1ccc([N+](=O)[O-])cc1)c1nc2ncccc2[nH]1 | 6.51 µM | 4.75 | 4.14 | 8.76 µM | > 100 | 5.27 µM | 4.21 µM | 1.87 µM | 56.6 | 6.37 | – | – | – | – | – | – | – | – | – | –
CCC(=O)C(CCN1CCC(N2C(=O)C(CCC#N)c3ccccc32)CC1)(c1ccccc1)c1ccccc1 (configuration not stated) | 26.5 µM | 30.5 | 67.7 | 40.1 µM | 96.4 | 22.1 µM | – | 32.6 µM | 34 | 22.2 | – | – | – | – | – | – | – | – | – | –
C[C@H]1C[C@H]2[C@@H]3CCC4=CC(=O)C=C[C@]4(C)C3=CC[C@]2(C)[C@@]1(O)C(=O)CO | > 100 µM | > 100 | > 100 | > 100 µM | > 100 | > 100 µM | > 100 µM | > 100 µM | > 100 | > 100 | – | – | – | – | – | – | – | – | – | –
COc1ccc(C(=O)Oc2c(C#N)sc3c2c(=O)n(-c2ccccc2)c(=S)n3-c2ccccc2)cc1 | 69.6 µM | 44.4 | 68.5 | 41.4 µM | 68.9 | 58 µM | 79 µM | 57 µM | 68.2 | 44.8 | – | – | – | – | – | – | – | – | – | –
O=c1[nH]c2nc[nH]c2c(=O)n1C1CCCCC1 | > 100 µM | > 100 | > 100 | > 100 µM | > 100 | > 100 µM | > 100 µM | > 100 µM | > 100 | > 100 | – | – | – | – | – | – | – | – | – | –
c1ccc(COC2C3COC(O3)C(OCc3ccccc3)C2OCc2ccccc2)cc1 (configuration not stated) | > 100 µM | > 100 | > 100 | > 100 µM | > 100 | > 100 µM | > 100 µM | > 100 µM | 41.7 | > 100 | – | – | – | – | – | – | – | – | – | –
CSc1c(C#N)c(S)n(-c2ccc(Cl)cc2)c(=O)c1C#N | > 100 µM | > 100 | > 100 | > 100 µM | > 100 | > 100 µM | > 100 µM | > 100 µM | > 100 | > 100 | – | – | – | – | – | – | – | – | – | –
O=C(O)CCCc1ccccc1 | 625 µM and > 1000 µM | > 1000 | > 1000 | 302 µM and > 1000 µM | > 1000 | 427 µM and > 1000 µM | 184 µM and > 1000 µM | 917 µM and > 1000 µM | > 1000 | > 1000 | > 1000 | 412 µM and > 1000 µM | 456 µM and > 1000 µM | > 1000 | > 1000 | > 1000 | – | 253 µM and > 1000 µM | > 1000 | > 1
O=C1/C(=C/c2cccs2)NC(=S)N1CN1CCCCC1 | > 100 µM | > 100 | > 100 | > 100 µM | – | > 100 µM | > 100 µM | > 100 µM | > 100 | > 100 | – | – | – | – | – | – | – | – | – | –
CCN1C[C@]2(C)CC[C@H](OC)C34C5C[C@@H]6[C@@H](OC)C[C@@](OC)(C5[C@H]6OCc5ccccc5)C(C13)[C@H](OC(C)=O)[C@@H]42 (some centres not stated) | > 100 µM | > 100 | > 100 | > 100 µM | – | > 100 µM | > 100 µM | > 100 µM | > 100 | > 100 | – | – | – | – | – | – | – | – | – | –
O=C(Nc1ccc2[nH]c(C(=O)N3CC(CCl)c4ccc([N+](=O)[O-])cc43)cc2c1)c1cc2ccccc2o1 (configuration not stated) | > 1100 µM | > 1100 | > 1100 | > 1100 µM | > 1100 | > 1100 µM | > 1100 µM | > 1100 µM | > 1100 | > 1100 | – | – | – | – | – | – | – | – | – | –
CNC(=O)N1N[C@H](c2ccccc2)[C@@H]1c1ccccc1 | > 100 µM | 56.4 | > 100 | 55.4 µM | > 100 | 32.8 µM | > 100 µM | 32.8 µM | 62.7 | 56.1 | – | – | – | – | – | – | – | – | – | –
c1ccc(C2=C(c3ccccc3)Sc3nnc(CCCCCCCCc4nnc5n4NC(c4ccccc4)=C(c4ccccc4)S5)n3N2)cc1 | > 100 µM | – | > 100 | > 100 µM | > 100 | > 100 µM | > 100 µM | > 100 µM | > 100 | > 100 | – | – | – | – | – | – | – | – | – | –
